The results in this text go back to ChEMBL document CHEMBL1157539, “Thousands of chemical starting points for antimalarial lead identification” (Nature, 2010).

The assay concerns Plasmodium falciparum. Description: GSK_TCMDC: Inhibition of Plasmodium falciparum 3D7 in whole erythrocytes, using parasite LDH activity as an index of growth. As to conditions: Plasmodium falciparum, 3D7. The format is functional, organism-based.
The compound `O=C(/C=C/c1cc([N+](=O)[O-])ccc1Cl)NC1CCC(CN2CCC(c3c[nH]c4ccccc34)CC2)CC1` (configuration not stated) came in with an XC50 of 740 nM.

As to `CN1CCC(N(Cc2ccc(-c3ccc(C(F)(F)F)cc3)cc2)C(=O)Cn2cc(Cc3cnn(C)c3)c(=O)nc2SCc2cccc(F)c2F)CC1`, the XC50 was determined as 933 nM.

As to `CC(C)(CN1CCCC1)CN(Cc1ccc(-c2ccc(C(F)(F)F)cc2)cc1)C(=O)Cn1c(CCc2cccc(F)c2F)nc(=O)c2ccccc21`, the XC50 worked out at 790 nM.

Compound `Cc1nc(O)c2c(ccc3ccc(CNc4ccc(C(=O)N[C@@H](CCC(=O)O)C(=O)O)c(F)c4)cc32)n1` showed an XC50 of 402 nM.

As to `COc1ccc(-c2ccc(NC(=O)c3ccc(Cl)cc3)cc2)cc1CN1CCNCC1`, the XC50 turned out to be 129 nM.

`CCc1c(CCNCCCCCCNCCc2ccc(OC)c(OC)c2CC)ccc(OC)c1OC` returned an XC50 of 735 nM.

`O=C(/C=C/c1cccs1)NC1CCC(CN2CCC(c3c[nH]c4ccccc34)CC2)CC1` (configuration not stated) displayed an XC50 of 1050 nM.

Take `O=C(Nc1cccc(CN2CCCN(Cc3ccc(O)cc3)CC2)c1)c1cc2ccccc2o1`: the XC50 was determined as 1200 nM.

In turn, `N#Cc1cccc(Nc2ncc3c(-c4cccc(NC(=O)Cc5cccc(Cl)c5)c4)c[nH]c3n2)c1` yielded an XC50 of 423 nM.

As for `COc1ccccc1/C=C/C(=O)NC1CCC(CCN2CCc3ccc(-c4cc(C)no4)cc3CC2)CC1` (configuration not stated), the XC50 came out at 961 nM.

For `CC1(C)NC(N)=NC(=N)N1OCCOc1ccc2ccccc2c1`, the XC50 turned out to be 3.2 nM.

Compound `CCOc1cc(C(=O)Nc2ccc3nc(N(CC)CC)cc(C)c3c2)cc(OCC)c1OCC` showed an XC50 of 696 nM.

Compound `Clc1ccc(OCc2ccccc2)c(-c2nc(-c3nc4ccc(Cl)cc4[nH]3)cs2)c1` registered an XC50 of 670 nM.

As to `CN1CCCc2ccc(NC(=O)Nc3ccc(Cl)c(Cl)c3)cc2C1`, the XC50 came to 603 nM.

For `N#Cc1ccc(N2CCN(Cc3cccc(-c4ccc(-c5nc6cc(C(F)(F)F)ccc6[nH]5)cc4)c3)CC2)nc1`, the XC50 is 702 nM.

`Cc1cc(N[C@@H](Cc2ccccc2)C(=O)NCc2cccc(F)c2)nc(NCCc2ccc(F)cc2)n1` showed an XC50 of 649 nM.

As to `COc1nc(Nc2cccc(C)c2)nc(OC)n1`, the XC50 was found to be 1010 nM.

Compound `Cc1ccccc1OCCCON1C(=N)N=C(N)NC1(C)C` returned an XC50 of 3.2 nM.

`CCC1(c2ccccc2)N=C(N)N(CCCc2ccccc2)C1=O` (configuration not stated) yielded an XC50 of 891 nM.

`O=C(Nc1cc(F)c(F)c(-c2cccnc2)c1)N1CCc2cc(Cl)c(Cl)cc21` registered an XC50 of 844 nM.

`CC(C)COc1ccc(Cl)cc1Cc1nc(-c2nc3cccc(CN4CCN(C)CC4)c3[nH]2)cs1` registered an XC50 of 1330 nM.

`COc1cc(NCCCNC(=O)c2cc3c(Cl)cc(Cl)cc3[nH]2)nc2ccccc12`: the XC50 came to 144 nM.

Take `Clc1ccc(CNc2nc(NCCc3c[nH]cn3)nc(Nc3ccc4c(c3)OCO4)n2)cc1`: the XC50 worked out at 955 nM.

With `O=C(NCCCN1CCCC1=O)NCc1ccccc1`, the XC50 was found to be 816 nM.

Compound `COc1cc(NCCCNCC2c3ccccc3Oc3ccccc32)nc2ccccc12` displayed an XC50 of 331 nM.

The compound `COc1cccc(CC(=O)NC2CCN(c3ccnc4cc(Cl)ccc34)C2)c1` (configuration not stated) returned an XC50 of 704 nM.

In the case of `CCc1cc2c(O)c([N+](=O)[O-])c(=O)oc2cc1OCCCCCOc1cc2oc(=O)c([N+](=O)[O-])c(O)c2cc1CC`, the XC50 is 257 nM.

For the compound `COc1ccc(-c2ccc(NC(=O)c3ccc(F)cc3)cc2)cc1CN1CCCN(C)CC1`, the XC50 stood at 663 nM.

Compound `O=c1cc(NCCCNCc2ccc(Cl)c(Cl)c2)[nH]c2cc(Cl)ccc12` came in with an XC50 of 925 nM.

Consider `COc1ccc(C2CC(=O)C3=C(C2)NC(C)=C(C(=O)OC(C)C)C3c2ccccc2F)cc1OC` (configuration not stated), for which the XC50 was 61.6 nM.

As to `Cc1cc(NCCc2ccccc2)nc(NC(=N)Nc2cccc(F)c2)n1`, the XC50 came to 899 nM.

As for `Fc1cc(Cl)ccc1Nc1ccnc2cc(-c3ccc(CN4CCNCC4)o3)ccc12`, the XC50 is 277 nM.

In the case of `COc1nc2c(CCN3CCC(NCc4ccc5c(c4)NC(=O)CO5)CC3)c(Cl)cnc2cc1F`, the XC50 amounted to 771 nM.

Take `CCN1CCN(c2cc(C)c3cc(NC(=O)c4ccc([N+](=O)[O-])c(C)c4)ccc3n2)CC1`: the XC50 came out at 654 nM.

`COc1ccc(Nc2nccc(NCC(O)c3ccc(C(F)(F)F)cc3)n2)cc1` (configuration not stated) gave an XC50 of 545 nM.

Compound `COCCNCc1nc(-c2ccc3c(Nc4ccc(F)c(O)c4)ccnc3c2)cs1` came in with an XC50 of 695 nM.

Compound `COC(=O)Cc1ccc(N)c2ccccc12` showed an XC50 of 702 nM.

`CCOc1ccccc1CNc1nccc(NCc2ccc(Cl)cc2Cl)n1` returned an XC50 of 1100 nM.

In turn, `COc1ccc2c(NN=Cc3ccccc3)ccnc2c1` showed an XC50 of 130 nM.

As to `OCCN1CCN(c2nc(Nc3cccc(F)c3)c3cnn(-c4ccccc4)c3n2)CC1`, the XC50 was 828 nM.

Turning to `Cc1ccc(-c2nnc(Nc3ccc(OCC(N)=O)cc3)c3ccccc23)cc1S(=O)(=O)NCC1CCCO1` (configuration not stated), the XC50 amounted to 753 nM.

With `CCCCCN1CCCCC(NS(=O)(=O)c2ccc(C(=O)Nc3cccc(C(F)(F)F)c3)cc2)C1` (configuration not stated), the XC50 is 750 nM.

Regarding `Cc1cc(N[C@@H](Cc2ccccc2)C(=O)NCc2cccs2)nc(NCC2CCCCC2)n1`, the XC50 is 988 nM.

The compound `CC(C)NCc1ccc(-c2ccc(NC(=O)c3ccc(Cl)cc3)cc2)cc1` displayed an XC50 of 910 nM.

With `CC(C)(C)c1ccc2[nH]c(-c3ccc(/C=C/C(=O)NC4CCN(Cc5ccccc5)CC4)cc3)nc2c1`, the XC50 worked out at 589 nM.

In turn, `CCNc1cc(C(=O)N[C@@H](Cc2ccccc2)[C@H](O)CNC(C)(C)Cc2cccc(OC)c2)cc(N2CCCC2=O)c1` came in with an XC50 of 707 nM.

Regarding `CCc1ccc(NC(=O)c2ccc(CN3CCCN(Cc4cccs4)CC3)cc2)cc1`, the XC50 was determined as 827 nM.

On to `CCOC(=O)c1ccc(NC(=O)Nc2cccc(-c3ccc(-c4nc5cc(F)ccc5[nH]4)cc3)c2)cc1`, for which the XC50 turned out to be 94.5 nM.

With `CCCCCN1CCCN(Cc2cccc(NC(=O)c3ccc(Cl)c(Cl)c3)c2)CC1`, the XC50 was found to be 927 nM.

`CCOC(=O)N1NC(=O)N(c2ccccc2)C1(c1ccccc1)c1ccccc1` had an XC50 of 697 nM.

On to `CCOc1ccc(C2CCN(CCN3CCC(NC(=O)c4ccc(-c5ccc(C(F)(F)F)cc5)cc4)CC3)CC2)c(OCC2CC2)c1`, for which the XC50 came to 826 nM.

Regarding `Brc1ccccc1CNc1ccnc(NCCn2ccnc2)n1`, the XC50 is 900 nM.

Compound `NC(=O)c1cccc(Nc2nccc(Nc3ccc4[nH]c(-c5ccccc5)cc4c3)n2)c1` showed an XC50 of 776 nM.

`CN1CCC(C(=O)Nc2ccc(-c3cccc(-c4nc5cc(C(F)(F)F)ccc5[nH]4)c3)cc2)CC1` gave an XC50 of 577 nM.

Turning to `CC(=O)c1ccc2c(c1)CCN(CCC1CCC(NC(=O)c3cc4ccccc4[nH]3)CC1)CC2` (configuration not stated), the XC50 was 982 nM.

`CN(C(=O)c1cc2c(-c3cncnc3)cccc2[nH]1)c1ccccc1` came in with an XC50 of 628 nM.

Compound `C=CCOc1ccc(Cc2cnc(N)nc2N)cc1CCC` registered an XC50 of 1020 nM.

In the case of `CN(C(=O)OCc1ccccc1)C1CCC(CCN2CCC3(CC2)C(=O)NCN3c2cccc(C(F)(F)F)c2)(c2ccccc2)CC1` (configuration not stated), the XC50 was determined as 1180 nM.

`CN1CCC(NCc2cccc(-c3cccc(S(=O)(=O)NCc4ccccc4)c3)c2)CC1`: the XC50 stood at 749 nM.

`C=C(C)CSc1nc2c(c(=O)n1CCc1ccccc1)C1(CCCC1)Cc1ccccc1-2`: the XC50 was 607 nM.

Regarding `CC(C)CCN1CCC(Oc2ccc(NC(=O)c3cccs3)cc2Cl)C1` (configuration not stated), the XC50 is 1100 nM.

In the case of `CS(=O)(=O)Nc1ccc2[nH]cc(C3CCN(CC4CCN(C(=O)/C=C/c5ccc(Cl)c(Cl)c5)CC4)CC3)c2c1`, the XC50 worked out at 716 nM.
